Earlier results in patent US20120059052A1, “PRENYLFLAVONOID FORMULATIONS” (BIOACTIVES, INC., priority 2005, published 2012).

Tests used:
Settings in all cases: cDNA-expressed human enzyme; cited from earlier work
[1] = target: T1, Cyp1A2 (Homo sapiens, UniProt P05177)
T1 sequence (P05177 1-516): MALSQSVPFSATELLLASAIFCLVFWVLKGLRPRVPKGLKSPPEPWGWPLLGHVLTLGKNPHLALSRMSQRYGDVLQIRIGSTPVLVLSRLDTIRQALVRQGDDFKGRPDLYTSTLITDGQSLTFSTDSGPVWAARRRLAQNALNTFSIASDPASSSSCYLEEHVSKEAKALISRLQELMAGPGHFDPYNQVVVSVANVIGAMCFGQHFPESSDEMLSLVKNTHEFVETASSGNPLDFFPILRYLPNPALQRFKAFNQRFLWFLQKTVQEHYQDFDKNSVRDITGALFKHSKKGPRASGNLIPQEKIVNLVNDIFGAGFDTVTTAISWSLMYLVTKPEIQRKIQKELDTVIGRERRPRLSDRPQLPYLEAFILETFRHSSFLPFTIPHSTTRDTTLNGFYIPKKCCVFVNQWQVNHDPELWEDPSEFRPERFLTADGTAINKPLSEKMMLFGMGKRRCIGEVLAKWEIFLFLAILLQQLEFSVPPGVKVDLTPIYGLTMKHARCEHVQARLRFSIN

[2] = target: T2, Cyp1A1 (Homo sapiens, UniProt P04798)
T2 sequence (P04798 1-512): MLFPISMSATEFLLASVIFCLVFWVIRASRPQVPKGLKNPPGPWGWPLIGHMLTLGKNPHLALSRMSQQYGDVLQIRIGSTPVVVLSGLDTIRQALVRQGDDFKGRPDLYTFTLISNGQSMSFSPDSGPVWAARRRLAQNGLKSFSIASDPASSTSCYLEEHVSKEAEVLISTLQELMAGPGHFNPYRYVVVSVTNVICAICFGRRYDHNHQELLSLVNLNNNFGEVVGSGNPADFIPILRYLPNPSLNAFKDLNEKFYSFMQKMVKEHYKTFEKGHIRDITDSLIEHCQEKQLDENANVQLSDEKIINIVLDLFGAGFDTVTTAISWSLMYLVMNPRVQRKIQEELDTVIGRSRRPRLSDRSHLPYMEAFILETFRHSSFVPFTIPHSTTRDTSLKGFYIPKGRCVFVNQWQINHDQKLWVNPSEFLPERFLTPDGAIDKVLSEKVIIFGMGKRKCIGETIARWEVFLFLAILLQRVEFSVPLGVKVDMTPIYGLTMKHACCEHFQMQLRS

[3] = target: T3, Cyp1B 1 (Homo sapiens, UniProt Q16678)
T3 sequence (Q16678 1-543): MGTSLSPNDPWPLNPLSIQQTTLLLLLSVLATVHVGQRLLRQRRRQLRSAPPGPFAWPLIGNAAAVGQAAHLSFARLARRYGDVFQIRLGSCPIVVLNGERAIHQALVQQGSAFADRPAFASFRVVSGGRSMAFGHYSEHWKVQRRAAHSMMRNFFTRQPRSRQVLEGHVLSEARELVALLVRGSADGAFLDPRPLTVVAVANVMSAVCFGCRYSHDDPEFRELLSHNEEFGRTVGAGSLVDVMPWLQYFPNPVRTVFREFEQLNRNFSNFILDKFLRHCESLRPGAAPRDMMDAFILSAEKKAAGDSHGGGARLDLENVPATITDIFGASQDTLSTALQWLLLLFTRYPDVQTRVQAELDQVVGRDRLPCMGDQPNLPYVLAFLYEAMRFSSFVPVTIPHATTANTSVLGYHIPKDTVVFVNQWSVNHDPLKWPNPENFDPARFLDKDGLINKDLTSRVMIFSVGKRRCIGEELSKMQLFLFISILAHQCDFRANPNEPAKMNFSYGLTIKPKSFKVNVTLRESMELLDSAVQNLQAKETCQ

COc1cc(O)c(CC=C(C)C)c(O)c1C(=O)/C=C/c1ccc(O)cc1 [Xanthohumol, xanthohumol]
strongly inhibit: Inhibition of Cyp1A2 [1] | Inhibition of Cyp1A1 [2] | Inhibition of Cyp1B1 [3]
